Where two headings read alike, the source gives them in different places.
Tests used:
AURORA-C = target: T1, AURORA-C (Homo sapiens, UniProt Q9UQB9); assay: Kinome profiling AURORA-C; format: biochemical; settings: read-out: Inhibitory activity AURORA-C; for inhibition at 0.1 µM: 100 nM
T1 sequence (Q9UQB9 1-309): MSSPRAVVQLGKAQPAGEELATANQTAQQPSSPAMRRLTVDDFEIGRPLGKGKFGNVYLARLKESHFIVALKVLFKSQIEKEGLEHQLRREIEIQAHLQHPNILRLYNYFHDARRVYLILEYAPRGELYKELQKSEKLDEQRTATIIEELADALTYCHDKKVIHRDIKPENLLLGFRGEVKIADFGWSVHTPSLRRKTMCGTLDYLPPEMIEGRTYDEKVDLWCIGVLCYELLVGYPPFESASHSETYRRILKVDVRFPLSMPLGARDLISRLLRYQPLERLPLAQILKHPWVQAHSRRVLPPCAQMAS
Method: (§1) . The kinome-wide selectivity was determined following the methods previously reported by Mohedas et al., ACS Chem Biol 2013, 8, 1291-1302 and Sanvitale et al., PLoS One 2013, 8, e62721.

PRKD2 = target: T2, PRKD2 (Homo sapiens, UniProt Q9BZL6); assay: Kinome profiling PRKD2; format: biochemical; settings: for inhibition at 0.1 µM: 100 nM
T2 sequence (Q9BZL6 1-878): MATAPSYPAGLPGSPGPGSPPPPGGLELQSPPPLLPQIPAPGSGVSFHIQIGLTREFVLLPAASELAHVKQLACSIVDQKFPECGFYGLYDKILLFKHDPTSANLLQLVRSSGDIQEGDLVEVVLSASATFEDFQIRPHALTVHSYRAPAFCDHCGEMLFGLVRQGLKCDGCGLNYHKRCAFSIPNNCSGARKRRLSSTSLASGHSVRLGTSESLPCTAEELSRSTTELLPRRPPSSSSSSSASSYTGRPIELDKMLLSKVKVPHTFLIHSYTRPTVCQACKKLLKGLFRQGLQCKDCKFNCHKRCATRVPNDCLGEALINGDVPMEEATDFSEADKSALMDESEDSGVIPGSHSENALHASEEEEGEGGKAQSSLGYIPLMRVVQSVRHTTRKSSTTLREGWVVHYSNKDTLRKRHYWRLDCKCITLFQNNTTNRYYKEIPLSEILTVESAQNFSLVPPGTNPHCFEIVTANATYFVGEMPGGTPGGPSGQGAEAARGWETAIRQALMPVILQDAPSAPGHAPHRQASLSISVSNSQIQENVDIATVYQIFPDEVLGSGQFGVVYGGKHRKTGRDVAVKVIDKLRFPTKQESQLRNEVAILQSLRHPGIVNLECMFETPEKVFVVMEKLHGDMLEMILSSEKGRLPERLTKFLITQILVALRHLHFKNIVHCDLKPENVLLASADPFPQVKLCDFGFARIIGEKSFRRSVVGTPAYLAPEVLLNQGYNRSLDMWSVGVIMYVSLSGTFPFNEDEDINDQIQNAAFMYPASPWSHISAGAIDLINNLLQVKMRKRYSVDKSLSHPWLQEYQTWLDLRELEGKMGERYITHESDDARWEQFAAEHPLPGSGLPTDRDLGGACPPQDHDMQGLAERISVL
Method: as §1

[1] = test system: HePG2 hepatocarcinoma cells; format: cell-based; settings: human
Method: The cells were incubated for 2 h (37° C. and 5% CO2) and allowed to settle and attach. Compounds of interest or DMSO were diluted in DMEM and added at final compound concentrations of 1 μM, 10 μM, and 100 μM. Cells were incubated for 4 hours and 24 hours after which the media was discarded. Cells were lysed by adding 30 μL of passive lysis buffer (Promega) and shaken at RT for 15 min. Cell viability was determined by quantifying the ATP present in each well by adding 10 μL of CellTiter-Glo (Promega) per well and measuring the light output Spectramax L luminometer (Molecular Devices) with an integration time of one second per well. Data was normalized to 100% viability for cells receiving only DMSO without any concurrent compound.

PRAK = target: T3, PRAK (Homo sapiens, UniProt Q8IW41); assay: Kinome profiling PRAK; format: biochemical; settings: read-out: Inhibitory activity PRAK; for inhibition at 0.1 µM: 100 nM
T3 sequence (Q8IW41 1-473): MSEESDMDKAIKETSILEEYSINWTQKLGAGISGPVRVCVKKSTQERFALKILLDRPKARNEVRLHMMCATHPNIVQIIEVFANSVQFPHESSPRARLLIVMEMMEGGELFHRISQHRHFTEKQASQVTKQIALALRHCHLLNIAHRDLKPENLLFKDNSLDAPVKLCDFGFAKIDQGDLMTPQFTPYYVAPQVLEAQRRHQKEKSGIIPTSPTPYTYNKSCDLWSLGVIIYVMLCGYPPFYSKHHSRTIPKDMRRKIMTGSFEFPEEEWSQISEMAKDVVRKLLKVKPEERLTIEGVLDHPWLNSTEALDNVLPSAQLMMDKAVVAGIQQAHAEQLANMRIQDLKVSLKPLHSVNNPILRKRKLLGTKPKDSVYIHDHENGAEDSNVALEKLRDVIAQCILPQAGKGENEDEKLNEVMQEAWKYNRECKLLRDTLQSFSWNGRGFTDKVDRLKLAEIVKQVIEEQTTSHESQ
Method: as §1

LRRK2-G2019S = LRRK2-G2019S (Homo sapiens, UniProt Q5S007, G2019S); assay: Kinome profiling LRRK2-G2019S; format: biochemical; settings: read-out: Inhibitory activity LRRK2-G2019S; for inhibition at 0.1 µM: 100 nM
Method: as §1

MET = MET (Homo sapiens, UniProt P08581); assay: Kinome profiling MET; format: biochemical; settings: read-out: Inhibitory activity MET; for inhibition at 0.1 µM: 100 nM
Method: as §1

PKC-θ = PKC-θ (Homo sapiens, UniProt Q04759); assay: Kinome profiling PKC-θ; format: biochemical; settings: read-out: Inhibitory activity PKC-θ; for inhibition at 0.1 µM: 100 nM
Method: as §1

[2] = Table 4, read-out: Inhibitory Activity PRKD2
[3] = read-out: Inhibitory activity PRKD2

Sequence of PKC-θ (Q04759 whole entry): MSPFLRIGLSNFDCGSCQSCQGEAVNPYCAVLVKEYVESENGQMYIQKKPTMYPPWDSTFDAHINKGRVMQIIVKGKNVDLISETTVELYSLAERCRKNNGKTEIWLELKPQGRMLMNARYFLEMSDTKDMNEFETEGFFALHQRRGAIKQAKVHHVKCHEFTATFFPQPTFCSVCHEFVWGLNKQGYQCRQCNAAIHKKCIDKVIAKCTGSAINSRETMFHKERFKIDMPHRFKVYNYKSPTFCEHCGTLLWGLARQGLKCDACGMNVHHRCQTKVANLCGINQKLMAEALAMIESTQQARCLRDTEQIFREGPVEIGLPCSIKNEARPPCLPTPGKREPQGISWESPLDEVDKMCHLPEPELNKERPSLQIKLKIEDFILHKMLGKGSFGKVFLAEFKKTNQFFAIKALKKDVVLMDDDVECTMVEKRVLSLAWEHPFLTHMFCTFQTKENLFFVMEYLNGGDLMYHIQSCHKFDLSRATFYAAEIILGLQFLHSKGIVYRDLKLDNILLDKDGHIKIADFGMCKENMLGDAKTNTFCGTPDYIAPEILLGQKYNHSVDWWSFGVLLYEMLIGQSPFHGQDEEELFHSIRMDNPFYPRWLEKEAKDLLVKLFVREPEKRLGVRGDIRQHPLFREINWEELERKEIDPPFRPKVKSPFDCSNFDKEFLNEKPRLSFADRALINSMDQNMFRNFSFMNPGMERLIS
Sequence of LRRK2-G2019S (Q5S007 whole entry G2019S): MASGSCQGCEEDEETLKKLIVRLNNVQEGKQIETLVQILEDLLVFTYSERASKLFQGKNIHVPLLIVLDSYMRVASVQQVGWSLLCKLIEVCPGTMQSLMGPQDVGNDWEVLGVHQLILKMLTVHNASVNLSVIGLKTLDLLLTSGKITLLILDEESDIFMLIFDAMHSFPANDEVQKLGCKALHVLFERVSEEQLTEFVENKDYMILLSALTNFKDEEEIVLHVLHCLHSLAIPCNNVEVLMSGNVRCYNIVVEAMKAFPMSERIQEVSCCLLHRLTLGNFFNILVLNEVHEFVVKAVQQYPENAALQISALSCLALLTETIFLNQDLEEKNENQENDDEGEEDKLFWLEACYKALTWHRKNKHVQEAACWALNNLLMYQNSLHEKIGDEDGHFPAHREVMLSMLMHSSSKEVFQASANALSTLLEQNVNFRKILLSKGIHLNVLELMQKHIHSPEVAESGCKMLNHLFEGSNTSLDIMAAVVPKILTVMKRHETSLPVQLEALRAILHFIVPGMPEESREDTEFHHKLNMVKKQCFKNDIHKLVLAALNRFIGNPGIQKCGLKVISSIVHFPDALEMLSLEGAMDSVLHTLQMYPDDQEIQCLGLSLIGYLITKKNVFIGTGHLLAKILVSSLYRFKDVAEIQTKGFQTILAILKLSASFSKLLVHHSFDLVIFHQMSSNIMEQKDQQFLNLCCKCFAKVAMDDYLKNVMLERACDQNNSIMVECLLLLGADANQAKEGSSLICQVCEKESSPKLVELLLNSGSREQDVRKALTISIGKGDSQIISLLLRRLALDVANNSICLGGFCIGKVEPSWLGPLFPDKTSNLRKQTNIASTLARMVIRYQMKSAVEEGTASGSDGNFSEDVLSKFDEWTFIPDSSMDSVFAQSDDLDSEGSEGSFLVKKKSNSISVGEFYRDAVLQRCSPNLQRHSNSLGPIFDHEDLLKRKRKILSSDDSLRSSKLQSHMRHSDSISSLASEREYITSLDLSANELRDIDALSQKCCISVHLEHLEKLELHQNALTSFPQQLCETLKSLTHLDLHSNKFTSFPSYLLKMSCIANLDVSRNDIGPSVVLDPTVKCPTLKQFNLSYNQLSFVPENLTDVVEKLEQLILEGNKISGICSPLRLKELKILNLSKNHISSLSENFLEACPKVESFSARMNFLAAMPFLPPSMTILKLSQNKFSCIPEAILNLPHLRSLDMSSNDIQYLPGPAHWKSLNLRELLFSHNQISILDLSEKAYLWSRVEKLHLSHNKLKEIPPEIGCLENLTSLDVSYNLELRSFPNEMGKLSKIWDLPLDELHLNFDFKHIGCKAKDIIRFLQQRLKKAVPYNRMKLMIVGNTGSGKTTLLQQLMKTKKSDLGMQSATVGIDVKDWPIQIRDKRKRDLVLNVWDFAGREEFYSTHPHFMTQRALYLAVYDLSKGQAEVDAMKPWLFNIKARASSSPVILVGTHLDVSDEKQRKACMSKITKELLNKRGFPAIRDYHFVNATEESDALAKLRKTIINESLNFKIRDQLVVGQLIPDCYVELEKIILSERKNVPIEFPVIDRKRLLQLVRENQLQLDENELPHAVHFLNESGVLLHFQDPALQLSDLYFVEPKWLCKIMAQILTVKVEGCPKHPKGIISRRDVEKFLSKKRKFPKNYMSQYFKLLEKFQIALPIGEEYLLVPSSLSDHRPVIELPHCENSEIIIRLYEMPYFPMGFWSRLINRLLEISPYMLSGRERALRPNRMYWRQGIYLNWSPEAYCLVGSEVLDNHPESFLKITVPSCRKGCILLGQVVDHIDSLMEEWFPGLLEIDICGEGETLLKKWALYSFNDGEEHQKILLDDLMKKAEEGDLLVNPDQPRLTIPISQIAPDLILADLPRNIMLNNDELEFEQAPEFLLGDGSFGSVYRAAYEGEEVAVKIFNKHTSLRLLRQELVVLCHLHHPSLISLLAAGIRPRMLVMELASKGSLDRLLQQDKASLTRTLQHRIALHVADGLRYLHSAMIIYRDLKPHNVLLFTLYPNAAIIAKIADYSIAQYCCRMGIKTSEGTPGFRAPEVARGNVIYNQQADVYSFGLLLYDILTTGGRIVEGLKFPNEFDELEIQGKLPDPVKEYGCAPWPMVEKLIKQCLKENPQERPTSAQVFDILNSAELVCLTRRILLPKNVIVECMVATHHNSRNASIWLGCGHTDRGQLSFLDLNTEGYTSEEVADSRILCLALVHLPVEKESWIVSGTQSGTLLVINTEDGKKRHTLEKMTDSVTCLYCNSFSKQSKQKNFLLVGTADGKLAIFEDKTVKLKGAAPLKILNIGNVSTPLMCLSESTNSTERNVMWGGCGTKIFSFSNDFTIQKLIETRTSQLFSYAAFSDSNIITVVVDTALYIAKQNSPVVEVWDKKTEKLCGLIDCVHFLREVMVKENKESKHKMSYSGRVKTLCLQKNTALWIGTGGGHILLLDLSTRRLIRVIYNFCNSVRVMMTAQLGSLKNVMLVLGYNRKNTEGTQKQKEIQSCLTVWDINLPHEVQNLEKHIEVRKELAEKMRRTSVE
Sequence of MET (P08581 25-1390): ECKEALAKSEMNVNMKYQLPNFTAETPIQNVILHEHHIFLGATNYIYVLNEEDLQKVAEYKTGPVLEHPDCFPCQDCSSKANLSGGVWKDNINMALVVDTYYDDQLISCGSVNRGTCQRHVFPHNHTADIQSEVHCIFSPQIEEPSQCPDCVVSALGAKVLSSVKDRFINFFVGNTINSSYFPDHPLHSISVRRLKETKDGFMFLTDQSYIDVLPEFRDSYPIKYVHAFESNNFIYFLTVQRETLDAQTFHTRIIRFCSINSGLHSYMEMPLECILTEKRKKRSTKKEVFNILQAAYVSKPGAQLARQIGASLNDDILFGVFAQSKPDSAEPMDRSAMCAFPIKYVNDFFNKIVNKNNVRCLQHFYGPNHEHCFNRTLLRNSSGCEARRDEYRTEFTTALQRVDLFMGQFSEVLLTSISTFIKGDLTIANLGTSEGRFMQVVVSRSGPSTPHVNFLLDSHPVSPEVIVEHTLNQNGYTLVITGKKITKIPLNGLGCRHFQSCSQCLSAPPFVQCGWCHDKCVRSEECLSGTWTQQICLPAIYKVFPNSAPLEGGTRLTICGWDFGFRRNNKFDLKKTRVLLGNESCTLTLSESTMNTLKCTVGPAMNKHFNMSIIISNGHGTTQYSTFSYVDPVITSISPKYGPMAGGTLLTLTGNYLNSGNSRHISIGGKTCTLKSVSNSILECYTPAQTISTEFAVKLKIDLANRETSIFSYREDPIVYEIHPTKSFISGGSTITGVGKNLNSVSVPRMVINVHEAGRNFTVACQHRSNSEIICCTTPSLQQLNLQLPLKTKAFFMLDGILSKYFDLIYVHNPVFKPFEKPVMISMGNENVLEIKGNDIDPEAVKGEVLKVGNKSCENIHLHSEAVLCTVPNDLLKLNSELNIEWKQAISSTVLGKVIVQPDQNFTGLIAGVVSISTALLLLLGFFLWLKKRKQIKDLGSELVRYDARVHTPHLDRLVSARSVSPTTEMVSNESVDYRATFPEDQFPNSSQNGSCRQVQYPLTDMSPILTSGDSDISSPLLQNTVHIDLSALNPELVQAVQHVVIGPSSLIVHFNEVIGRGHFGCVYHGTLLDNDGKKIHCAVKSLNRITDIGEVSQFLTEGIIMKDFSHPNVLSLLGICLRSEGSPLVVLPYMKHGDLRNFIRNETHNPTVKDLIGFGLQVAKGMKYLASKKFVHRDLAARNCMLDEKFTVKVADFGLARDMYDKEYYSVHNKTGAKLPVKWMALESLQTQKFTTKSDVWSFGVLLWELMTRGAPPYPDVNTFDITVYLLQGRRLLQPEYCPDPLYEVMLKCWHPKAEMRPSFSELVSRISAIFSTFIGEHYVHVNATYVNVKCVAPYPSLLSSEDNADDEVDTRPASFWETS

SMILES | inhibition at 0.1 µM (AURORA-C) | inhibition at 1 µM (AURORA-C) | inhibition at 0.1 µM (PRKD2; [2]) | inhibition at 0.1 µM (PRKD2; [3]) | inhibition at 1 µM (PRKD2; [2]) | inhibition at 1 µM (PRKD2; [3]) | Cell viability ([1]; 4 h, 1 μM) | Cell viability ([1]; 4 h, 10 μM) | Cell viability ([1]; 4 h, 100 μM) | Cell viability ([1]; 24 h, 1 μM) | Cell viability ([1]; 24 h, 10 μM) | Cell viability ([1]; 24 h, 100 μM) | inhibition at 0.1 µM (PRAK) | inhibition at 1 µM (PRAK) | inhibition at 0.1 µM (LRRK2-G2019S) | inhibition at 1 µM (LRRK2-G2019S) | inhibition at 0.1 µM (MET) | inhibition at 1 µM (MET) | inhibition at 0.1 µM (PKC-θ) | inhibition at 1 µM (PKC-θ)
COc1cc(-c2cc(-c3ccc(N4CCNCC4)cc3)cnc2C)cc(OC)c1OC [Compound 10, 1-(4-(6-methyl-5-(3,4,5-trimethoxyphenyl)pyridin-3-yl)phenyl)piperazine] | 1% | 1% | 16% | 16% | 57% | 57% | 91% | 100% | 88% | 92% | 78% | 77% | 0% | 3% | 4% | 11% | -1% | 2% | 1% | 2%
COc1cc(-c2cc(-c3ccc(N4CCNCC4)cc3)cnc2N)cc(OC)c1OC [Compound 15, 5-(4-(piperazin-1-yl)phenyl)-3-(3,4,5-trimethoxyphenyl)pyridin-2-amine] | 3% | 7% | – | 12% | – | 54% | 95% | 103% | 103% | 96% | 96% | 23% | 1% | 1% | 16% | 57% | 7% | 21% | 1% | 1%
